Results taken from US4352817A, “Imidazo-diazepines and their use” (priority 1982, dated 1982).

Key:
Schistosoma mansoni [1] = experiment: In vitro schistosomicidal activity (motility of worm pairs); format: cell-based; parameters: key to Activity: worm pairs motionless within 15 minutes; b: worm pairs show normal motility during the test period of 120 hours; details: for Activity: 37° C., 120 hours
Method: In order to test the in vitro activity of preparations, worm pairs of Schistosoma mansoni are isolated from mice and incubated at 37° C. in a nutrient medium. Preparations are added in the form of a solution or as a suspension. The motility of the worms is observed under a microscope and registered during the test period of 120 hours. A schistosomicidal activity of a preparation manifests itself in the more or less rapid loss of motility of the worms. Control worms in the nutrient medium without the addition of a preparation maintain their normal motility during the entire test period of 120 hours.

Schistosoma mansoni [2] = experiment: Schistosomicidal activity in infected golden hamsters; format: in vivo; details: Hamster
Method: (§1) Mice and golden hamsters are infected subcutaneously with 60 cercaria of Schistosoma mansoni. About 42 days after the infection, they are treated orally with a single dosage of the preparation to be tested. 5 animals are used per preparation and dosage. 10 untreated animals are used as controls. The animals are killed and dissected 2 weeks (hamster) or 3 weeks (mice) after the treatment. Worm pairs in mesenteric veins, portal vein and liver are dissected-out, counted and the condition of the worms (living or dead) are registered. A schistosomicidal activity of a preparation manifests itself in the appearance of dead worms in the vessels of the liver. Dead worms are never found in untreated control animals. The test is evaluated by calculating the percentage of dead worm pairs in the liver of infected, treated animals.

Schistosoma mansoni [3] = experiment: Schistosomicidal activity in infected mice; format: in vivo; details: for Schistosomicidal activity in %: Mouse
Method: as §1

[4] = molecular target: central benzodiazepine receptors (cerebral cortex); experiment: Inhibition of binding of tritiated diazepam at the specific benzodiazepine receptors in the cerebral cortex
Method: The affinity of compounds of formula I to the central benzodiazepine receptors was determined according to the method described in Life Science 20, 2101-2110 (1977) and Science 198, 849-851 (1977). According to this method, the inhibition of the binding of tritiated diazepam at the specific benzodiazepine receptors in the cerebral cortex by the respective test substances is ascertained. The IC50 ("50% inhibiting concentration") is that concentration of the respective test substance which brings about a 50 percent inhibition of the specific binding of the tritiated diazepam at the specific benzodiazepine receptors in the cerebral cortex.

[5] = test system: diazepam effect in the pentetrazole test; experiment: Antagonism of diazepam in the pentetrazole test; format: in vivo, mice; details: for ED50: Mus musculus, po, 0.25 h, mice, diazepam 5 mg/kg i.p. 1 hour before pentetrazole 120 mg/kg i.p., test compound p.o. 15 minutes before pentetrazole
Method: This property was used to evaluate the test described hereinafter which permits the determination of compounds which are capable of antagonizing the central properties of 1,4-benzodiazepines which have tranquillizing activity.
The antagonistic activity of the compounds investigated, i.e. their ability to counteract the activity of the diazepam in the pentetrazole test, is determined by counting the mice which suffer convulsive attacks in this test.
(§2) In the following Table there are presented the results which have been obtained with representative members of the class of compound defined by formula I in the test previously described. The ED50 is the amount of test compound in mg/kg (p.o.) which counteracts in 50% of the animals the diazepam effect in the above test. Moreover, the Table contains the IC50 value defined above for all test compounds listed therein as well as data concerning the acute toxicity of certain of these compounds (LD50 in mg/kg in the case of single oral administration to mice).

[6] = Acute toxicity, single oral administration to mice; details: mouse, in vivo
Text: as §2

Question: What does the source list for `CC1N=C(c2ccccc2Cl)c2cc([N+](=O)[O-])ccc2NC1=O` (single isomer, unassigned; (+)) [Compound S, (+)-5-(o-chlorophenyl)-1,3-dihydro-3-methyl-7-nitro-2H-1,4-benzodiazepin-2-one, reference compound]?
Answer: Activity (Schistosoma mansoni [1]; Compound S 25 ug/ml alone): a (worm pairs motionless within 15 minutes); Schistosomicidal activity in % (Schistosoma mansoni [2]; Compound S 75 mg/kg p.o. alone): 100%; Schistosomicidal activity in % (Schistosoma mansoni [3]; Compound S 75 mg/kg p.o. alone): 100%

Question: With `CN1Cc2c(C(=O)OC(C)(C)C)ncn2-c2ccc(F)cc2C1=O` [(a) F H --CH3 O, t-butyl 8-fluoro-5,6-dihydro-5-methyl-6-oxo-4H-imidazo[1,5-a][1,4]benzodiazepine-3-carboxylate] as the molecule, how does the IC50 [4] read?
Answer: 1.4 nM

Question: And the ED50 [5]?
Answer: 8.4 mg/kg

Question: With `CN1Cc2c(C(=O)OC(C)(C)C)ncn2-c2cccc(Br)c2C1=O` [(a) H Br --CH3 O, t-butyl 7-bromo-5,6-dihydro-5-methyl-6-oxo-4H-imidazo[1,5-a][1,4]benzodiazepine-3-carboxylate] as the molecule, how does the IC50 [4] read?
Answer: 2.3 nM

Question: What about the ED50 [5] of the same molecule?
Answer: 0.13 mg/kg

Question: What does the source list for `CN1Cc2c(C(=O)OC(C)(C)C)ncn2-c2cccc(C#N)c2C1=O` [(a) H CN --CH3 O, t-butyl 7-cyano-5,6-dihydro-5-methyl-6-oxo-4H-imidazo[1,5-a][1,4]benzodiazepine-3-carboxylate]?
Answer: IC50 [4]: 10 nM; ED50 [5]: 1.22 mg/kg

Question: Which results are given for `CN1Cc2c(C(=O)OC(C)(C)C)ncn2-c2cccc(Cl)c2C1=O` [(a) H Cl --CH3 O, t-butyl 7-chloro-5,6-dihydro-5-methyl-6-oxo-4H-imidazo[1,5-a][1,4]benzodiazepine-3-carboxylate]?
Answer: Activity (Schistosoma mansoni [1]; Compound A 25 ug/ml alone): b; Activity (Schistosoma mansoni [1]; Compound A 100 ug/ml alone): b; influence on schistosomicidal activity of compound S (Schistosoma mansoni [1]; in vitro test): not influenced detrimentally; Schistosomicidal activity in % (Schistosoma mansoni [2]; Compound A 225 mg/kg p.o. alone): 0%; Schistosomicidal activity in % (Schistosoma mansoni [3]; Compound A 300 mg/kg p.o. alone): 0%; influence on schistosomicidal activity of compound S (Schistosoma mansoni [3]; animal tests (mice and hamsters)): not influenced detrimentally; IC50 [4]: 3 nM; ED50 [5]: 0.2 mg/kg; LD50 [6]: 312 mg/kg

Question: With `CN1Cc2c(C(=O)OC(C)(C)C)ncn2-c2ccccc2C1=O` [(a) H H --CH3 O, t-butyl 5,6-dihydro-5-methyl-6-oxo-4H-imidazo[1,5-a][1,4]benzodiazepine-3-carboxylate] as the molecule, how does the IC50 [4] read?
Answer: 3.3 nM

Question: And the ED50 [5]?
Answer: 4.7 mg/kg

Question: What about the LD50 [6] of the same molecule?
Answer: 625 mg/kg

Question: With `CN1Cc2c(C(=O)OC(C)(C)C)ncn2-c2ccccc2C1=S` [(a) H H --CH3 S, t-butyl 5,6-dihydro-5-methyl-6-thioxo-4H-imidazo[1,5-a][1,4]benzodiazepine-3-carboxylate] as the molecule, how does the IC50 [4] read?
Answer: 8.9 nM

Question: And the ED50 [5]?
Answer: 7.1 mg/kg

Question: With `CN1Cc2c(C(=O)OC(C)(C)C)ncn2-c2cccc(I)c2C1=O` [(a) H I --CH3 O, t-butyl 5,6-dihydro-7-iodo-5-methyl-6-oxo-4H-imidazo[1,5-a][1,4]benzodiazepine-3-carboxylate] as the molecule, how does the IC50 [4] read?
Answer: 2.6 nM

Question: And the ED50 [5]?
Answer: 0.14 mg/kg

Question: With `CN1C(=O)CN=C(c2ccccc2)c2cc(Cl)ccc21` [diazepam, reference compound] as the molecule, how does the “experimental animals protected from convulsive attacks in the pentetrazole test” value ([5]; diazepam 5 mg/kg i.p., more than 900 mice) read?
Answer: protects all experimental animals from convulsive attacks
